The test relates to NCI-H211 complex spheroid viability. Put plainly: Anticancer human tumor NCI-H211 cell line growth inhibition [LSD1].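 As to all read-outs here: luminescent viability read after seven days of drug exposure.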 The note with it: for viability, T/C: stronger effect = lower value; for IC50: curve of compound. The source says:
Multicellular complex tumor spheroid response to LSD1 Inhibitor Iadademstat in combination with a variety of drugs and investigational agents in selected tumor cell lines
The current study was undertaken to assess response to LSD1 inhibitors in combination with standard-of-care drugs and investigational agents in solid tumor complex spheroid models as well as in the K-562 leukemia. Complex spheroids include a stromal component modeled by human endothelial cells (HUVEC) and fibroblasts modeled by human mesenchymal stem cells (MSCs). The concentration ranges selected for each drug and investigational agent were based upon clinically achievable concentrations if the clinical Cmax of the agent was known.
Compounds. The drugs and investigational agents used in this study are listed on Table 1. All of the agents used, including staurosporine (NSC755774) and gemcitabine (NSC613327), were obtained from the Developmental Therapeutics Program, NCI. FDA-approved anticancer drugs are available from the NCI at http://dtp.nci.nih.gov/branches/dscb/oncology_drugset_explanation.html. Drugs and investigational agents were >95% pure by proton nuclear magnetic resonance (NMR) and liquid chromatography/mass spectrometry (LC/MS). Stock solutions were prepared at 400x in DMSO, stored at -70 degrees C, and diluted in fresh medium prior to their use. The final concentration of DMSO in cell culture wells never exceeded 0.25% (v/v). The FDA-approved anticancer drug set is available from the Developmental Therapeutics Program at https://dtp.cancer.gov/organization/dscb/obtaining/available_plates.htm. All drugs and investigational agents were tested over a range starting from a high concentration at or near the clinical Cmax and decreasing in half-log increments. If the clinical Cmax for an agent had not been determined, the highest concentration tested was 10 microM.
Cell Lines. The patient-derived cancer cell (PDC) lines: 292921-168-R-J2-PDC, K24384-001-R-PDC, and 521955-158-R2-J5-PDC pancreatic carcinomas, 556581-035-R-J1 ovarian carcinoma, 324938-238-R-J1-PDC, 855422-203-R-J1-PDC and 883617-216-R-J1-PDC urothelial bladder carcinomas, 743489-274-T-PDC renal cell carcinoma, 138582-R-J1 Merkel cell tumor, K60290-347-R-J1 and K57222-313-R-J1-PDC glioblastomas, 653999-131-R-J2-PDC, LG0703-F948-PDC, and 349418-098-R-PDC non-small cell lung carcinomas, 885512-296-R-J2-PDC, 171881-019-R-J1-PDC breast carcinomas and 186277-243-T-J2-PDC and 233499-124-R-J2-PDC colon carcinomas were obtained from the NCI Patient-Derived Models Repository (PDMR, https://pdmr.cancer.gov). The established cell lines NCI/ADR-RES (RRID:CVCL_14520 and OVCAR-5 (RRID:CVCL_1628) ovarian carcinomas, 786-O (RRID:CVCL_1051) and A498 (RRID:CVCL_A498) renal cell carcinoma, NCI-H211 (ATCC, cat. CRL-5824; RRID:CVCL_1529), NCI-H196 (ATCC, cat. CRL-5823, RRID:CVCL_1509), SW 1271 (ATCC, cat. CRL-2177, RRID:CVCL_1716) and NCI-H1876 (ATCC, cat. CRL-5902, RRID:CVCL_1503) small cell lung carcinomas, MDA-MB-231 (RRID:CVCL_0062) and MDA-MB-468 (RRID:CVCL_0419)breast carcinomas (10-12). Pooled donor human umbilical vein endothelial cells (HUVEC, Lonza, cat. CC-2519) and human mesenchymal stem cells (hMSC, Lonza, cat. PT-2501) were purchased from Lonza (Walkersville, MD).
Cell Culture. All cells were maintained in an incubator at 37 degrees C and 5% CO2 with 95% humidity. The PDC lines were cultured according to standard operating procedures established by the NCI PDMR (https://pdmr.cancer.gov). Briefly all PDCs were thawed and cultured in Matrigel-coated flasks prepared with a working solution of 1X Ham's F-12 nutrient mix, without supplementation (Invitrogen, Waltham, MA, cat. 11765054), 100 U/mL penicillin-streptomycin (Invitrogen, cat. 15140122), and 2.5% Matrigel (Corning Inc., Corning, NY, cat. 354248) for the first three passages. […]

Molecules are shown by their SMILES. Several values for one entry are separate records, joined by “and”; a condition that tells them apart may be missing. Equal entries are not always repeated.

The term viability, T/C denotes the result in the treated group divided by that in the control group, in per cent. In general, IC50 refers to the concentration at which inhibition is half-maximal. With `CC(C)CC(NC(=O)C(Cc1ccccc1)NC(=O)c1cnccn1)B(O)O` (configuration not stated), the IC50 was 2.13 nM and 2.1 nM. In addition, the viability, T/C (compound 0.000316 µM) was 109% and 100%. In addition, the viability, T/C (compound 0.001 µM) was 96.9% and 86.8%. The viability, T/C (compound 0.00316 µM) was 25.4% and 29.6%. Also, the viability, T/C (compound 0.01 µM) is 6.26% and 1.54%. Moreover, the viability, T/C (compound 0.0316 µM) is 0.16% and 0.2%. For the same compound, the viability, T/C (compound 0.1 µM) was 0.16% and 0.32%.

Turning to `CC(C)CC(NC(=O)CNC(=O)c1cc(Cl)ccc1Cl)B1OC(=O)CC(CC(=O)O)(C(=O)O)O1` (configuration not stated), the IC50 is 14.4 nM and 8.63 nM. Also, for the setting “compound 0.000316 µM”, the viability, T/C was 125% and 105%. The viability, T/C (compound 0.001 µM) is 114% and 102%. Moreover, the viability, T/C (compound 0.00316 µM) is 112% and 115%. Besides, the viability, T/C (compound 0.01 µM) is 65.5% and 41.5%. Moreover, the viability, T/C (compound 0.0316 µM) was 16% and 14%. The viability, T/C (compound 0.1 µM) was 3.55% and 4.35%.

For `CC1(C)CCC(CN2CCN(c3ccc(C(=O)NS(=O)(=O)c4ccc(NCC5CCOCC5)c([N+](=O)[O-])c4)c(Oc4cnc5[nH]ccc5c4)c3)CC2)=C(c2ccc(Cl)cc2)C1`, the viability, T/C is, setting by setting: (compound 0.0316 µM) 95.3% and 36.1%; (compound 0.1 µM) 98.2% and 43.8%; (compound 0.316 µM) 98.3% and 47.9%; (compound 1 µM) 124% and 72.7%; (compound 3.16 µM) 118% and 99.6%; (compound 10 µM) 32.2% and 60.1%.

In the case of `CC1COCCN1c1cc(-c2ccnn2C)c2ccnc(-c3ccn[nH]3)c2n1` (configuration not stated), the IC50 was 4.96 nM and < 3.16 nM. For the same compound, the viability, T/C (compound 0.00316 µM) was 68.4% and 38.3%. The viability, T/C (compound 0.01 µM) is 21.5% and 14%. In addition, the viability, T/C (compound 0.0316 µM) is 4.05% and 7.88%. For the setting “compound 0.1 µM”, the viability, T/C is 2.34% and 6.02%. Moreover, the viability, T/C (compound 0.316 µM) is 2.16% and 5.04%. The viability, T/C (compound 1 µM) is 2.28% and 5.77%.

For the compound `CCN(c1cc(-c2ccc(CN3CCOCC3)cc2)cc(C(=O)NCc2c(C)cc(C)[nH]c2=O)c1C)C1CCOCC1`, the IC50 was > 3000 nM and 1390 nM. In addition, the viability, T/C (compound 0.00949 µM) is 122% and 86.1%. Where the note is “compound 0.03 µM”, the viability, T/C was 108% and 75.3%. For the same compound, the viability, T/C (compound 0.0949 µM) was 100% and 68.3%. Also, the viability, T/C (compound 0.3 µM) is 97.3% and 54.6%. Further, the viability, T/C (compound 0.949 µM) was 96.4% and 52.2%. For the same compound, the viability, T/C (compound 3 µM) was 93.8% and 47.7%.

In the case of `CC[C@@]1(O)C(=O)OCc2c1cc1n(c2=O)Cc2cc3c(CN(C)C)c(O)ccc3nc2-1`, the IC50 is 0.447 nM and 0.455 nM. The viability, T/C (compound 0.000316 µM) is 66.6% and 67%. Moreover, under “compound 0.001 µM”, the viability, T/C is 11.4% and 13.2%. For the same compound, the viability, T/C (compound 0.00316 µM) is 2.8% and 5.22%. In addition, the viability, T/C (compound 0.01 µM) is 2.3% and 5.28%. Besides, the viability, T/C (compound 0.0316 µM) was 2.56% and 5.04%. Moreover, the viability, T/C (compound 0.1 µM) is 0.87% and 3.38%.

For the compound `CCc1c2c(nc3ccc(O)cc13)-c1cc3c(c(=O)n1C2)COC(=O)[C@]3(O)CC`, the IC50 is under 0.949 nM. Besides, under “compound 0.000949 µM”, the viability, T/C was 1.09% and 3.31%. Where the note is “compound 0.003 µM”, the viability, T/C is 0.88% and 2.36%. In addition, under “compound 0.00949 µM”, the viability, T/C was 0.42% and 1.27%. For the same compound, the viability, T/C (compound 0.03 µM) was 0.59% and 0.51%. The viability, T/C (compound 0.0949 µM) was 0.14% and 0.18%. The viability, T/C (compound 0.3 µM) is 0.21% and 0.25%.

With `COc1cc(C2c3cc4c(cc3C(OC3OC5COC(C)OC5C(O)C3O)C3COC(=O)C23)OCO4)cc(OC)c1O` (configuration not stated), the IC50 was 14.7 nM and < 9.49 nM. Further, where the note is “compound 0.00949 µM”, the viability, T/C was 71.3% and 48.3%. In addition, the viability, T/C (compound 0.03 µM) was 15.2% and 13.1%. The viability, T/C (compound 0.0949 µM) was 2.55% and 6.21%. In addition, the viability, T/C (compound 0.3 µM) is 2.41% and 5.04%. The viability, T/C (compound 0.949 µM) was 2.11% and 6.22%. The viability, T/C (compound 3 µM) is 2.35% and 5.42%.

In the case of `COc1cc(Nc2ncc3c(n2)-c2ccc(Cl)cc2C(c2c(F)cccc2OC)=NC3)ccc1C(=O)O`, the IC50 is under 3.16 nM. In addition, the viability, T/C (compound 0.00316 µM) is 44.2% and 45.2%. For the same compound, the viability, T/C (compound 0.01 µM) was 8.97% and 8.03%. Also, the viability, T/C (compound 0.0316 µM) is 5.37% and 3.95%. Also, under “compound 0.1 µM”, the viability, T/C was 4.19% and 5.61%. In addition, the viability, T/C (compound 0.316 µM) is 3.59% and 4.36%. Besides, under “compound 1 µM”, the viability, T/C is 3.38% and 3.29%.

The values above are taken from PubChem BioAssay AID1918940 (Molecular Pharmacology Branch, DTP, NCI, 2023).
